Assay results from US11981618B2, “P62 ligand compound, and composition for preventing, ameliorating or treating proteinopathies comprising the same” (AUTOTAC INC., priority 2018, dated 2024).
“Also recorded” adds a separate entry of the source.

Assays:
LC3 = assay: Autophagy activity in cultured cells by immunoblotting using LC3 as a marker; assay type: cell-based, human; conditions: HeLa
Method: In order to evaluate the autophagy activity efficacy by the compounds (Examples 1-19), HeLa cell line, which is a cell line derived from a cervical cancer patient, was cultured using a DMEM medium containing 10% FBS and 1% streptomycin/penicillin in an incubator with 5% carbon dioxide. As representative compounds among the present compounds, YOK-1107, YOK-4404 and YOK-1104 were selected. In order to measure autophagy activity according to the treatment with these selected representative compounds, the respective cells were dispensed into 6 well plates. Additional cultures were performed […] so that the cells were completely attached to the surface of the plate. To find the concentration at which the respective compounds could increase the phenomenon of autophagy, the test compounds were diluted at 1, 2, 5, 10 and 20 μM and treated. After treatment with the respective compounds, the cells were cultured again in a cell incubator for 24 hours, and then the cells were collected. To extract proteins from the collected cells, 100 ul of lysis buffer (20 mM Tris (pH 7.4), 150 mM NaCl, 1% Triton X-100, 2 mM NaF, 2 mM EDTA, 2 mM beta-glycerophosphate, 5 mM sodium orthovanadate, 1 mM PMSF, leupeptin, aprotinin) was injected into each sample, and cells were lysed. Based on the measured total protein concentration, a sample buffer was added to each sample and allowed to react at 100° C. for 5 minutes. 5 ul was taken from the samples after the reaction, and dispensed into each well of acrylamide gel, and then immunoblotting was performed.
In order to investigate the autophagy activity efficacy by the compounds (Examples 1-19), immunoblotting was performed in the same manner as in Experimental Example 2 using LC3 as a marker. As for the difference, in order to evaluate the treatment time required for activation and the activity retention time, as the representative compounds selected among the present compounds, 5 μM of YOK-1107, YOK-1204, YOK-1304, YOK-2204, YOK-3304, […] treated for 1, 3, 6, 12, 24, 48 hours. On the other hand, as the representative compounds selected among the compounds of the present invention, […] YOK-1107, YOK-1109, YOK-2207, YOK-2209, YT-4-1, YT-4-2, YT-6-1, YT-6-2, YT-6-8, YT-6-7, YT-9-1, YT-9-2 were treated for 24 hours.
In order to investigate the autophagy activity efficacy of control compounds, immunoblotting was performed in the same manner as in Experimental Example 2 by using LC3 as a marker. As the control compounds, compounds having the following structure were used.

p62 and LC3 = assay: Autophagy activity in cultured cells by immunofluorescence staining and confocal microscopy (p62 and LC3 puncta); assay type: cell-based, human; conditions: for p62 activation/oligomerization, delivery to autophagosome and autophagy activity (p62 and LC3 puncta, co-existence): HeLa, 5 uM, 24 hours, FIGS. 6a and 6b; for p62 activation/oligomerization, delivery to autophagosome and autophagy activity (p62 and LC3 puncta), control compounds: different concentrations, FIG. 7
Method: In order to confirm the p62 protein activity and the activity level of autophagy phenomenon by the compounds (Examples 1-19), immunofluorescence staining was performed using p62 and LC3 as markers. In order to confirm the p62 activity and the activity level of autophagy phenomenon by new p62 ligands and isomers thereof in cultured cells, HeLa cell line, which is a cell line derived from cervical cancer patient, was treated with the novel p62 ligand compounds (YOK-1106, YOK-1204, YOK-1504, YOK-2204, YOK-3304, YOK-4404, YOK-1107, YOK-1109, YOK-2207, YOK-2209, YT-4-1, YT-4-2, YT-6-1, YT-9-1 and YT-9-2) and cultured. Thereafter, as markers of the autophagy phenomenon, the expression level and location of LC3 puncta and the local co-existence with p62 puncta were observed.
For immunofluorescence staining, a cover glass was placed on a 24-well plate, cells were dispensed, cultured for 24 hours, and then treated with 5 uM of the novel p62 ligands according to the present invention. For the action of the compounds, additional cultures were performed for 24 hours, and then the medium was removed. Cells were fixed using formaldehyde at room temperature. In order to prevent non-specific staining, the cells were allowed to react with a blocking solution at room temperature for 1 hour, and then treated with LC3 antibody diluted at a certain ratio using the blocking solution, and allowed to reacted at room temperature for 1 hour. The antibody-treated cells were washed three times with PBS, and goat-derived secondary antibody was diluted at a certain ratio using the blocking solution, and then allowed to react at room temperature for 30 minutes. The cells were washed again with PBS three times, and for intracellular nuclear staining, the expression level, intracellular puncta formation and intracellular coexistence level of p62 and LC3 were observed through a confocal microscopy after DAPI staining.
In order to confirm p62 protein activity and the activity level of autophagy phenomenon of control compounds (YOK-A-1104, YOK-G-1104, YTK-1005, YTK-1105-1), immunofluorescence staining was performed in the same manner as in Experimental Example 4 by using p62 and LC3 as markers. YOK-A-1104 and YOK-G-1104 are compounds having the following structures.
The compounds were treated at different concentrations, and intracellular puncta of p62 or LC3, that is, the degree to which autophagosome was formed and p62 was delivered was observed by a confocal microscopy.

p62 protein = molecular target: T1, p62 protein (Homo sapiens, UniProt Q13501); assay: Oligomerization activity of p62 protein in cultured cells by immunoblotting; assay type: cell-based; conditions: HEK293 cell lysate treated with test compounds at room temperature for 2 hours; immunoblot, FIG. 2
T1 construct: endogenous in cells; host or cells: HEK293 (cell lysate treated with compounds)
Source text: In order to evaluate the p62 protein oligomerization activity efficacy by the compounds (Examples 1-19), HEK293 cell line, which is human embryonic kidney-derived cell, was collected. As representative compounds among the present compounds, YOK-1104, YOK-2204, YOK-3304, YOK-1204, YOK-4404, YOK-1107, YOK-1109, YOK-2207, YOK-2209, YT-4-1, YT-4-2, YT-6-1, YT-6-2, YT-6-7, YT-6-8, YT-9-1, YT-9-2 were selected. In order to measure intracellular p62 protein activation and oligomerization according to the treatment with these selected representative compounds, the respective cells were dispensed into a pi dish. The cells were collected after further culturing for 24 hours so that the cells were completely attached to the surface of the plate. 100 ul of lysis buffer (20 mM Tris, pH 7.4), 150 mM NaCl, 1% Triton X-100, 2 mM NaF, 2 mM EDTA, 2 mM beta-glycerophosphate, 5 mM sodium orthovanadate, 1 mM PMSF, leupeptin, aprotinin) were injected into each sample and the cells were lysed. Based on the measured total protein concentration, each sample was treated with test compounds at room temperature for 2 hours, and then a sample buffer was added and allowed to react at 95° C. for 10 minutes. 25 ul was taken from the samples after the reaction, and dispensed into each well of acrylamide gel, and then immunoblotting was performed.

[1] = 5 μM, treated for 1, 3, 6, 12, 24, 48 hours, FIG. 4
[2] = treated for 24 hours (concentration not given), FIG. 4

T1 sequence (Q13501 whole entry): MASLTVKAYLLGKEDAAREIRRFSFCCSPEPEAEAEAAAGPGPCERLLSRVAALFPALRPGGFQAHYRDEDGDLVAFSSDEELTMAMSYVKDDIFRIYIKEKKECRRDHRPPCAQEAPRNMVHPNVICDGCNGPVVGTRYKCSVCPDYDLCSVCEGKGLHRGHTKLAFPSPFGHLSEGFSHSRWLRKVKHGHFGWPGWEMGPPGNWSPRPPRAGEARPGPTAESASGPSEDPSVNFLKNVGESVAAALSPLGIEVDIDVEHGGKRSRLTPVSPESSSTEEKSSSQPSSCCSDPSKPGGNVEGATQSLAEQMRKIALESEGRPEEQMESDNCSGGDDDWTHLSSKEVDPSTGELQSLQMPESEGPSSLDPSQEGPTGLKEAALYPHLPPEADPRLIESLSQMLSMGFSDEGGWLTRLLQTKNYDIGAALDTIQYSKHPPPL

Question: `OCCNC[C@@H](O)COc1ccc(OCc2ccccc2)c(OCc2ccccc2)c1` [YOK-1106] was tested. Which “autophagy activity (level of LC3)” value (LC3; [1]) did it give?
Answer: increasing the autophagy activity

Question: What about the “p62 activation/oligomerization, delivery to autophagosome and autophagy activity (p62 and LC3 puncta, co-existence)” value (p62 and LC3) of the same compound?
Answer: delivering them to autophagosome and simultaneously increasing autophagy activity

Question: For `CC(C)NC[C@@H](O)COc1ccc(OCc2ccccc2)c(OCCc2ccccc2)c1` [YOK-1204, (R)-1-(4-(benzyloxy)-3-phenethoxyphenoxy)-3-(isopropylamino)propan-2-ol], which “autophagy activity (level of LC3)” value (LC3; [1]) is on record?
Answer: gradually increased; also recorded: increasing the autophagy activity

Question: And the “p62 protein oligomerization activity (p62 monomer, oligomers and high-molecular aggregates)” value (shortened to “p62 protein oligomerization activity”) (p62 protein)?
Answer: increasing the p62 protein oligomerization activity

Question: And the “p62 activation/oligomerization, delivery to autophagosome and autophagy activity (p62 and LC3 puncta, co-existence)” value (p62 and LC3)?
Answer: delivering them to autophagosome and simultaneously increasing autophagy activity

Question: `CC(C)NC[C@@H](O)COc1ccc(OCCc2ccccc2)c(OCCc2ccccc2)c1` [YOK-2204, (R)-1-(3,4-diphenethoxyphenoxy)-3-(isopropylamino)propan-2-ol] was tested. Which “autophagy activity (level of LC3)” value (LC3; [1]) did it give?
Answer: gradually increased; also recorded: increasing the autophagy activity

Question: And the “p62 protein oligomerization activity” value (p62 protein)?
Answer: increasing the p62 protein oligomerization activity

Question: And the “p62 activation/oligomerization, delivery to autophagosome and autophagy activity (p62 and LC3 puncta, co-existence)” value (p62 and LC3)?
Answer: delivering them to autophagosome and simultaneously increasing autophagy activity

Question: Which “autophagy activity (level of LC3)” value (LC3; [1]) does the source give for `CC(C)NC[C@@H](O)COc1ccc(OCCCc2ccccc2)c(OCCCc2ccccc2)c1` [YOK-3304, (R)-1-(3,4-bis(3-phenylpropoxy)phenoxy)-3-(isopropylamino)propan-2-ol] here?
Answer: gradually increased

Question: What about the “p62 protein oligomerization activity” value (p62 protein) of the same compound?
Answer: increasing the p62 protein oligomerization activity

Question: And the “p62 activation/oligomerization, delivery to autophagosome and autophagy activity (p62 and LC3 puncta, co-existence)” value (p62 and LC3)?
Answer: delivering them to autophagosome and simultaneously increasing autophagy activity

Question: Which results are given for `CC(C)NC[C@@H](O)COc1ccc(OCCCCc2ccccc2)c(OCCCCc2ccccc2)c1` [YOK-4404, (R)-1-(3,4-bis(4-phenylbutoxy)phenoxy)-3-(isopropylamino)propan-2-ol]?
Answer: autophagy activity (level of LC3) (LC3; [1]): increasing the autophagy activity; autophagy activity (level of LC3) (LC3; 1, 2, 5, 10 and 20 μM, 24 hours, FIG. 3): increasing the autophagy activity; p62 protein oligomerization activity (p62 monomer, oligomers and high-molecular aggregates) (p62 protein): increasing the p62 protein oligomerization activity; p62 activation/oligomerization, delivery to autophagosome and autophagy activity (p62 and LC3 puncta, co-existence) (p62 and LC3): delivering them to autophagosome and simultaneously increasing autophagy activity

Question: `CCOC(=O)C(C)NC[C@@H](O)COc1ccc(OCc2ccccc2)c(OCc2ccccc2)c1` (stereo partly drawn) [YOK-A-1104, Ethyl (R)-(3-(3,4-bis(benzyloxy)phenoxy)-2-hydroxypropyl)alanineate, reference compound] was tested. Which “p62 activation/oligomerization, delivery to autophagosome and autophagy activity (p62 and LC3 puncta), control compounds” value (p62 and LC3) did it give?
Answer: delivering them to autophagosome and simultaneously increasing autophagy activity

Question: How did the “p62 activation/oligomerization, delivery to autophagosome and autophagy activity (p62 and LC3 puncta), control compounds” value (p62 and LC3) turn out when `COC(=O)CNC[C@@H](O)COc1ccc(OCc2ccccc2)c(OCc2ccccc2)c1` [YOK-G-1104, Methyl (R)-(3-(3,4-bis(benzyloxy)phenoxy)-2-hydroxypropyl)glycineate, reference compound] was run?
Answer: delivering them to autophagosome and simultaneously increasing autophagy activity

Question: `OCCNC[C@@H](O)COc1cccc(OCc2ccc(F)cc2)c1` [YT-6-8, (R)-1-(3-((4-fluorobenzyl)oxy)phenoxy)-3-((2-hydroxyethyl)amino)propan-2-ol] was tested. Which “autophagy activity (level of LC3)” value (LC3; [2]) did it give?
Answer: gradually increased

Question: What about the “p62 protein oligomerization activity” value (p62 protein) of the same compound?
Answer: increasing the p62 protein oligomerization activity

Question: How did the “autophagy activity (level of LC3)” value (LC3; [2]) turn out when `N=C(N)NCCNC[C@@H](O)COc1ccc(OCc2ccc(Cl)cc2)c(OCc2ccc(Cl)cc2)c1` [YT-9-1] was run?
Answer: gradually increased

Question: And the “p62 protein oligomerization activity” value (p62 protein)?
Answer: increasing the p62 protein oligomerization activity

Question: For `N=C(N)NCCNC[C@@H](O)COc1ccc(OCc2ccc(F)cc2)c(OCc2ccc(F)cc2)c1` [YT-9-2], which “autophagy activity (level of LC3)” value (LC3; [2]) is on record?
Answer: gradually increased

Question: And the “p62 protein oligomerization activity” value (p62 protein)?
Answer: increasing the p62 protein oligomerization activity

Question: For `OCCNCc1ccc(OCc2ccccc2)c(O)c1` [YTK-1005, reference compound], which “p62 activation/oligomerization, delivery to autophagosome and autophagy activity (p62 and LC3 puncta), control compounds” value (p62 and LC3) is on record?
Answer: delivering them to autophagosome and simultaneously increasing autophagy activity

Question: Which “autophagy activity (level of LC3), control compounds” value (LC3; different concentrations and different times, FIG. 5) does the source give for `OCCCCc1ccc(OCc2ccccc2)c(OCc2ccccc2)c1` [YTK-1105-1, 4-(3,4-bis(benzyloxy)phenyl)butan-1-ol, reference compound] here?
Answer: do not increase autophagy activity

Question: And the “p62 activation/oligomerization, delivery to autophagosome and autophagy activity (p62 and LC3 puncta), control compounds” value (p62 and LC3)?
Answer: delivering them to autophagosome and simultaneously increasing autophagy activity
